Where two headings read alike, the source gives them in different places.
What was measured:
[1] = system: norepinephrine- or KCl-contracted rat thoracic aorta; assay: Vasodilating activity: relaxation of contracted thoracic aorta helical strips; design: species or system Male Sprague-Dawley rats; settings: for IC50: cumulative application, pH 7.4, 37° C.; for relaxation of the aorta compared with papaverine: vs papaverine, norepinephrine or KCl contraction
Protocol: Male Sprague-Dawley rats weighing 250-300 g were sacrificed by cervical dislocation and exsanguinated. The thoracic aorta was dissected out and helical strips, 2 mm wide and 10 mm long, were prepared. Each preparation was mounted in a 10 ml organ bath containing physiological saline solution (Krebs-Henzeleit solution, pH 7.4). The solution was gassed with 95% O2 - 5% CO2 at 37° C. and a resting tension of 0.5 g was applied. Tissues were allowed to equilibrate for at least 60 minutes before the application of test substances. The developed tension was measured isometrically with a force-displacement transducer and recorded on pen-recorder. Tissues had been contracted with 10^-7 M norepinephrine or isotonic 60 mM KCl and test substances were applied cumulatively.

[2] = system: blood pressure; assay: Depressor effect in anesthetized spontaneously hypertensive rats (i.v.); type: in vivo, Male spontaneously hypertensive rats (SHR rats); design: Vasodepression / Duration time: unit not given here; settings: for Duration time / Vasodepression: injected into femoral vein
Protocol: Male spontaneously hypertensive rats (SHR rats), 25-31 weeks old, were anesthetized with 40 mg/kg of pentobarbital sodium injected intraperitoneally. For the measurement of blood pressure, a cannula was inserted into the left carotid artery and connected to a multipurpose polygraph through a pressure transducer. Each animal was allowed to equilibrate for at least 30 minutes before injection and test substances were injected into the femoral vein through a polyethylene tube.

[3] = system: ICR male mice; assay: Acute toxicity in mice (i.v.); type: in vivo; settings: five mice per dose
Protocol: The acute toxicity of Mer-A2026A was determined in ICR male mice. Five mice were used at each dose.

[4] = Solubility
[5] = 10^-7 M norepinephrine contraction, read-out: IC50 Norepinephrine (concentration needed to induce a 50% decrease in norepinephrine-induced contraction)
[6] = isotonic 60 mM KCl contraction, read-out: IC50 Isotonic KCl (concentration needed to induce a 50% decrease in KCl-induced contraction)

| SMILES | IC50 [1, 5] | IC50 [1, 6] | relaxation of the aorta compared with papaverine [1] | Duration time ([2]; 10 μg/kg) | Vasodepression ([2]; 10 μg/kg) | Duration time ([2]; 30 μg/kg) | Vasodepression ([2]; 30 μg/kg) | Duration time ([2]; 100 μg/kg) | Vasodepression ([2]; 100 μg/kg) | depressor effect (in words) ([2]; SHR rats, i.v., refers to Table 3) | acute toxicity (survival) ([3]; 250 μg/Kg intravenous) | acute toxicity (deaths) ([3]; 500 μg/Kg intravenous) | solubility in commonly available organic solvents [4] | solubility in water [4] | Duration time ([2]; 1000 μg/kg) | Vasodepression ([2]; 1000 μg/kg) |
| --- | --- | --- | --- | --- | --- | --- | --- | --- | --- | --- | --- | --- | --- | --- | --- | --- |
| COc1cc(O)c(C)c(C/C=C(\C)C/C=C/C(C)=C/C(C)C(O)/C(C)=C/C(C)C)n1 (centres unmarked) [Mer-A2026A] | 200 nM | 1000 nM | more greatly relaxed the aorta than papaverine | 0.2 | 3.6 | 9.4 | 25.0 | 24.5 | 47.7 | markedly prolonged the duration time and decreased the blood pressure | all survived | sacrificed the one mouse | soluble | insoluble | – | – |
| C/C=C(\C)C(O)C(C)/C=C(C)/C=C/C/C(C)=C/Cc1nc(OC)cc(O)c1C (centres unmarked) [Mer-A2026B] | 770 nM | 400 nM | more greatly relaxed the aorta than papaverine | – | – | – | – | – | – | – | – | – | soluble | insoluble | – | – |
| COc1ccc(Cc2nccc3cc(OC)c(OC)cc23)cc1OC [Papaverine, reference compound] | 4700 nM | 17000 nM | – | – | – | – | – | – | – | – | – | – | – | – | 2.2 | 52.0 |

Reference: patent US5223519A, “4-hydroxypyridine derivatives, useful for treating circulatory diseases” (Mercian Corporation, priority 1990, dated 1993)
